This test relates to CD2F1 mice, L1210 leukemia ip, survival T/C. The experiment in a line: NCI In Vivo Anticancer Drug Screen. Data for tumor model L1210 Leukemia (intraperitoneal) in CD2F1 (CDF1) mice. The conditions noted are these: higher = longer survival. Summed up: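 Each value reflects a quotient of treated over vehicle control outcomes in mice with a transplanted tumor.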
[1] abbreviates: endpoint: mean survival time, dose: 100.0 mg/kg/injection, schedule: Q04DX003 (ip), vehicle: saline with Tween-80.
The mark [2] stands for this setting: endpoint: mean survival time, dose: 200.0 mg/kg/injection, schedule: Q04DX003 (ip), vehicle: saline with Tween-80.
Where [3] appears, read: endpoint: mean survival time, dose: 400.0 mg/kg/injection, schedule: Q04DX003 (ip), vehicle: saline with Tween-80.
Setting [4] is: endpoint: mean survival time, dose: 100.0 mg/kg/injection, schedule: Q04DX002 (ip), vehicle: saline with Tween-80.

Several values for one entry are separate records, joined by “and”; a condition that tells them apart may be missing. Equal values may be shown once. Inconclusive results and toxic doses are left out.

As for `C#CCNc1ncnc2c1ncn2C1OC(CO)C(O)C1O` (stereo not drawn), the T/C is 96 % of control (endpoint: mean survival time, dose: 12.5 mg/kg/injection, schedule: Q01DX005 (ip), vehicle: other); 97 % of control (endpoint: mean survival time, dose: 25.0 mg/kg/injection, schedule: Q01DX005 (ip), vehicle: other); 111 % of control (endpoint: mean survival time, dose: 50.0 mg/kg/injection, schedule: Q01DX005 (ip), vehicle: other); 114 % of control (endpoint: mean survival time, dose: 100.0 mg/kg/injection, schedule: Q01DX005 (ip), vehicle: other); 111 % of control (endpoint: mean survival time, dose: 200.0 mg/kg/injection, schedule: Q01DX005 (ip), vehicle: other).
As for `O=C(O)CN(CC(=O)O)C1CCCCC1N(CC(=O)O)CC(=O)O.[Cl][Pt+2][Cl]` (stereo not drawn), the T/C is 96 % of control (endpoint: median survival time, dose: 10.0 mg/kg/injection, schedule: Q04DX003 (ip), vehicle: saline); 106 % of control (endpoint: median survival time, dose: 20.0 mg/kg/injection, schedule: Q04DX003 (ip), vehicle: saline); 103 % of control and 104 % of control (endpoint: median survival time, dose: 40.0 mg/kg/injection, schedule: Q04DX003 (ip), vehicle: saline); 106 % of control and 109 % of control (endpoint: median survival time, dose: 80.0 mg/kg/injection, schedule: Q04DX003 (ip), vehicle: saline).
`O=C1C=C(Nc2ccc([N+](=O)[O-])cc2Cl)c2ccccc2C1=O`: the T/C runs as follows: (endpoint: mean survival time, dose: 75.0 mg/kg/injection, schedule: Q01DX001 (ip), vehicle: saline) 100 % of control; (endpoint: mean survival time, dose: 150.0 mg/kg/injection, schedule: Q01DX001 (ip), vehicle: saline) 101 % of control; (endpoint: mean survival time, dose: 300.0 mg/kg/injection, schedule: Q01DX001 (ip), vehicle: saline) 112 % of control.
`CC(NC(=O)CNC(=O)CNC(=O)OCc1ccccc1)C(=O)OCc1ccccc1` (stereo not drawn): the T/C is 97 % of control under setting [1], 99 % of control under setting [2] and 101 % of control under setting [3].
`O=C(O)c1cccc2c1oc1ccccc12`: the T/C reads like this: under setting [4], 94 % of control; (endpoint: mean survival time, dose: 200.0 mg/kg/injection, schedule: Q04DX002 (ip), vehicle: saline with Tween-80) 94 % of control; (endpoint: mean survival time, dose: 400.0 mg/kg/injection, schedule: Q04DX002 (ip), vehicle: saline with Tween-80) 102 % of control.
Regarding `Nc1nc(N)c2nc(CNc3ccc(C(=O)NC(CCC(=O)O)C(=O)O)cc3)cnc2n1` (stereo not drawn), the T/C (endpoint: mean survival time, dose: 0.2 mg/kg/injection, schedule: Q01DX009 (ip), vehicle: alkali diluted with saline) is 150 % of control; the T/C (endpoint: mean survival time, dose: 0.3 mg/kg/injection, schedule: Q01DX009 (ip), vehicle: alkali diluted with saline) is 156 % of control; the T/C (endpoint: mean survival time, dose: 0.44 mg/kg/injection, schedule: Q01DX009 (ip), vehicle: alkali diluted with saline) was 174 % of control; the T/C (endpoint: mean survival time, dose: 0.67 mg/kg/injection, schedule: Q01DX009 (ip), vehicle: alkali diluted with saline) is 166 % of control; the T/C (endpoint: mean survival time, dose: 0.7 mg/kg/injection, schedule: Q01DX009 (ip), vehicle: alkali diluted with saline) is 118 % of control; the T/C (endpoint: mean survival time, dose: 1.0 mg/kg/injection, schedule: Q01DX009 (ip), vehicle: alkali diluted with saline) was 114 % of control. The T/C runs as follows: (endpoint: mean survival time, dose: 1.1 mg/kg/injection, schedule: Q01DX009 (ip), vehicle: alkali diluted with saline) 96 % of control; (endpoint: mean survival time, dose: 1.5 mg/kg/injection, schedule: Q01DX009 (ip), vehicle: alkali diluted with saline) 104 % of control; (endpoint: mean survival time, dose: 1.7 mg/kg/injection, schedule: Q01DX009 (ip), vehicle: alkali diluted with saline) 86 % of control.
Turning to `CCC1C(=O)OCc2c1cc1n(c2=O)Cc2cc3ccccc3nc2-1` (stereo not drawn), the T/C (endpoint: mean survival time, dose: 7.39 mg/kg/injection, schedule: Q01DX001 (ip), vehicle: saline) was 101 % of control; the T/C (endpoint: mean survival time, dose: 11.1 mg/kg/injection, schedule: Q01DX001 (ip), vehicle: saline) was 101 % of control; the T/C (endpoint: mean survival time, dose: 16.6 mg/kg/injection, schedule: Q01DX001 (ip), vehicle: saline) was 100 % of control; the T/C (endpoint: mean survival time, dose: 25.0 mg/kg/injection, schedule: Q01DX001 (ip), vehicle: saline) was 111 % of control.
For the compound `OCCN1CCN(CCCN2c3ccccc3Sc3ccc(C(F)(F)F)cc32)CC1`, the T/C is 110 % of control (endpoint: mean survival time, dose: 1.49 mg/kg/injection, schedule: Q01DX009 (ip), vehicle: saline); 113 % of control (endpoint: mean survival time, dose: 2.27 mg/kg/injection, schedule: Q01DX009 (ip), vehicle: saline); 121 % of control (endpoint: mean survival time, dose: 3.4 mg/kg/injection, schedule: Q01DX009 (ip), vehicle: saline); 116 % of control (endpoint: mean survival time, dose: 5.0 mg/kg/injection, schedule: Q04DX003 (ip), vehicle: saline); 100 % of control (endpoint: mean survival time, dose: 6.6 mg/kg/injection, schedule: Q04DX003 (ip), vehicle: saline sonified); 108 % of control (endpoint: mean survival time, dose: 6.6 mg/kg/injection, schedule: Q04DX003 (ip), vehicle: saline). Moreover, the T/C is 101 % of control (endpoint: mean survival time, dose: 10.0 mg/kg/injection, schedule: Q04DX003 (ip), vehicle: saline sonified); 116 % of control (endpoint: mean survival time, dose: 10.0 mg/kg/injection, schedule: Q04DX003 (ip), vehicle: saline); 114 % of control and 94 % of control (endpoint: mean survival time, dose: 15.0 mg/kg/injection, schedule: Q04DX003 (ip), vehicle: saline); 106 % of control (endpoint: mean survival time, dose: 20.0 mg/kg/injection, schedule: Q04DX003 (ip), vehicle: saline); 75 % of control (endpoint: mean survival time, dose: 30.0 mg/kg/injection, schedule: Q04DX003 (ip), vehicle: saline).
For `C=C1C(=O)O[C@@H]2[C@H](O)[C@@H](C)[C@@H]3C=CC(=O)[C@@]3(C)[C@H](OC(=O)C=C(C)C)[C@H]12`, the T/C is 100 % of control (endpoint: mean survival time, dose: 1.25 mg/kg/injection, schedule: Q01DX009 (ip), vehicle: saline with Tween-80); 102 % of control (endpoint: mean survival time, dose: 2.5 mg/kg/injection, schedule: Q01DX009 (ip), vehicle: saline with Tween-80); 108 % of control (endpoint: mean survival time, dose: 5.0 mg/kg/injection, schedule: Q01DX009 (ip), vehicle: saline with Tween-80); 106 % of control (endpoint: mean survival time, dose: 10.0 mg/kg/injection, schedule: Q01DX009 (ip), vehicle: saline with Tween-80); 89 % of control (endpoint: mean survival time, dose: 20.0 mg/kg/injection, schedule: Q01DX009 (ip), vehicle: saline with Tween-80).
For `CCN(CC)CCC(O)c1ccc2c3ccccc3n(C)c2c1` (stereo not drawn), the T/C under setting [4] is 109 % of control.
As for `O=c1oc(-c2ccccc2)nc2cc(Cl)ccc12`, the T/C reads like this: (endpoint: mean survival time, dose: 25.0 mg/kg/injection, schedule: Q01DX009 (ip), vehicle: saline with Tween-80) 105 % of control; (endpoint: mean survival time, dose: 50.0 mg/kg/injection, schedule: Q01DX009 (ip), vehicle: saline with Tween-80) 100 % of control; (endpoint: mean survival time, dose: 100.0 mg/kg/injection, schedule: Q01DX009 (ip), vehicle: saline with Tween-80) 105 % of control.
With `Nc1ncnc2c1c1cncnc1n2C1OC(CO)C(O)C1O` (stereo not drawn), the T/C runs as follows: (endpoint: mean survival time, dose: 12.5 mg/kg/injection, schedule: Q01DX005 (ip), vehicle: distilled water + Tween-80) 96 % of control; (endpoint: mean survival time, dose: 25.0 mg/kg/injection, schedule: Q01DX005 (ip), vehicle: distilled water + Tween-80) 98 % of control; (endpoint: mean survival time, dose: 50.0 mg/kg/injection, schedule: Q01DX005 (ip), vehicle: distilled water + Tween-80) 93 % of control; (endpoint: mean survival time, dose: 100.0 mg/kg/injection, schedule: Q01DX005 (ip), vehicle: distilled water + Tween-80) 90 % of control; (endpoint: mean survival time, dose: 200.0 mg/kg/injection, schedule: Q01DX005 (ip), vehicle: distilled water + Tween-80) 105 % of control; (endpoint: mean survival time, dose: 400.0 mg/kg/injection, schedule: Q01DX005 (ip), vehicle: distilled water + Tween-80) 110 % of control.
As to `CCOC(=O)NC(=S)n1ncnc1N`, the T/C was 97 % of control (endpoint: mean survival time, dose: 12.5 mg/kg/injection, schedule: Q04DX003 (ip), vehicle: saline) and 102 % of control (endpoint: mean survival time, dose: 25.0 mg/kg/injection, schedule: Q04DX003 (ip), vehicle: saline).
With `CCOC(=O)C(c1ccccc1)c1ccccc1`, the T/C under setting [1] is 102 % of control, the T/C under setting [2] was 111 % of control and the T/C under setting [3] is 103 % of control.
`CC/C(=N/NS(=O)(=O)c1ccc(C)cc1)C(=O)O`: the T/C runs as follows: (endpoint: mean survival time, dose: 12.5 mg/kg/injection, schedule: Q01DX009 (ip), vehicle: Klucel (hydroxypropylcellulose) (HPC)) 101 % of control; (endpoint: mean survival time, dose: 25.0 mg/kg/injection, schedule: Q01DX009 (ip), vehicle: Klucel (hydroxypropylcellulose) (HPC)) 98 % of control; (endpoint: mean survival time, dose: 50.0 mg/kg/injection, schedule: Q01DX009 (ip), vehicle: Klucel (hydroxypropylcellulose) (HPC)) 91 % of control; (endpoint: mean survival time, dose: 100.0 mg/kg/injection, schedule: Q01DX009 (ip), vehicle: Klucel (hydroxypropylcellulose) (HPC)) 96 % of control; (endpoint: mean survival time, dose: 200.0 mg/kg/injection, schedule: Q01DX009 (ip), vehicle: Klucel (hydroxypropylcellulose) (HPC)) 93 % of control; (endpoint: mean survival time, dose: 400.0 mg/kg/injection, schedule: Q01DX009 (ip), vehicle: Klucel (hydroxypropylcellulose) (HPC)) 91 % of control.
